16 molecules from PubChem BioAssay (NCI) can be followed below.

Some test systems named below: HCT-116 colon; HOP-62 NSCLC; RPMI-8226 leukemia; SF-539 CNS; UACC-257 melanoma; CAKI-1 renal; EKVX NSCLC; U251 CNS; SF-268 CNS; BT-549 breast.
Assay in all cases: growth of human tumour cells (NCI), 48 h

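The compound was tested at five concentrations on cells cultured in 96-well plates, with a 48-hour exposure period. GI50: concentration for 50% inhibition of growth. TGI is the concentration that stops growth completely.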

In the case of `COc1ccc(C(=O)/C=C/c2c(Cl)c3c(c(OC)c2Cl)OCC(=O)N3)cc1`, the GI50 in the assay with HCT-116 colon was 1430 nM; in the assay on HOP-62 NSCLC it was 2800 nM; in the assay with RPMI-8226 leukemia it was 1070 nM; with SF-539 CNS, 2210 nM; in the assay on UACC-257 melanoma it was 2980 nM. For the same molecule, the TGI in the assay on HCT-116 colon was 2.87 µM; in the assay with HOP-62 NSCLC, 6.96 µM; in the assay on RPMI-8226 leukemia, 4.07 µM; in the assay with SF-539 CNS, 4.85 µM; with UACC-257 melanoma, above 100 µM.
For `COc1cc2c(cc1OC)C(Cl)C(c1ccc(Cl)c(Cl)c1)=C2Cl` (stereo not drawn), the TGI in the assay with CAKI-1 renal came out at 25.1 µM; in the assay on EKVX NSCLC it was 44.7 µM; with RPMI-8226 leukemia, 12.8 µM; in the assay on SF-539 CNS, 22.2 µM; with U251 CNS it was 16.4 µM.
For the molecule `CC1(C)C2C=CC1(C)C1(CC2)OCCO1` (stereo not drawn), the TGI in the assay with HCT-116 colon, in the assay on HOP-62 NSCLC, with RPMI-8226 leukemia, in the assay with SF-268 CNS, with SF-539 CNS and with U251 CNS was above 100 µM throughout. The TGI with UACC-257 melanoma was above 100 µM.
For the molecule `Nc1ncnc2c1nnn2C1CCC(CP(=O)(O)O)C1` (stereo not drawn), the TGI with CAKI-1 renal, in the assay with EKVX NSCLC, in the assay with HCT-116 colon, in the assay on HOP-62 NSCLC, in the assay on RPMI-8226 leukemia and in the assay with SF-268 CNS was above 100 µM in each case. Moreover, the TGI in the assay on SF-539 CNS, in the assay with U251 CNS and in the assay with UACC-257 melanoma was above 100 µM each time.
On to `CCOC(=O)Cc1cc(OC)c(OC)cc1/C(Cl)=C(\C=O)c1ccc(OC)c(OC)c1`, for which the TGI in the assay on CAKI-1 renal was determined as 75.5 µM; in the assay on EKVX NSCLC, 71.7 µM; in the assay with HCT-116 colon it was 29 µM; in the assay with HOP-62 NSCLC, 46.9 µM; in the assay on RPMI-8226 leukemia, 43.1 µM; in the assay on U251 CNS, 33.1 µM. Further, in the assay on UACC-257 melanoma, the TGI was determined as 32.9 µM.
As for `Nc1ccccc1CC(O)C(=O)O` (stereo not drawn), the TGI with CAKI-1 renal, in the assay on EKVX NSCLC, in the assay with HCT-116 colon, in the assay with HOP-62 NSCLC, in the assay with RPMI-8226 leukemia and in the assay on SF-268 CNS was above 100 µM each time. In addition, the TGI in the assay with SF-539 CNS, in the assay with U251 CNS and with UACC-257 melanoma was above 100 µM throughout.
Consider `N#Cc1c(-c2ccc(Cl)cc2)c2c(n(C3OC(CO)C(O)C(O)C3O)c1=S)CCC2` (stereo not drawn), for which the TGI is 65 µM with BT-549 breast; above 100 µM with CAKI-1 renal; 98.4 µM in the assay on HCT-116 colon; 57 µM with HOP-62 NSCLC; above 100 µM with RPMI-8226 leukemia; 84.7 µM in the assay on SF-268 CNS. Further, the TGI with SF-539 CNS came out at 42.3 µM; in the assay with U251 CNS, 84.9 µM; with UACC-257 melanoma, 87.2 µM.
Take `CCOC(=O)c1cnc2oc3ccc(O)cc3c2c1-c1ccccc1`: the TGI in the assay on CAKI-1 renal is above 100 µM; in the assay on EKVX NSCLC, above 100 µM; with HCT-116 colon it was above 100 µM; in the assay with RPMI-8226 leukemia it was above 100 µM; in the assay on SF-268 CNS, above 100 µM; in the assay on SF-539 CNS, 46.5 µM. Also, the TGI in the assay on U251 CNS and in the assay with UACC-257 melanoma was above 100 µM in each case. Also, the GI50 with SF-268 CNS was 29.7 µM.
Consider `COc1ccc(C(=O)Cc2ccc(Br)cc2)cc1OC`, for which the TGI with CAKI-1 renal, with EKVX NSCLC, in the assay with HCT-116 colon, with HOP-62 NSCLC, with RPMI-8226 leukemia and with SF-268 CNS was above 100 µM in each case. The TGI with SF-539 CNS, with U251 CNS and in the assay with UACC-257 melanoma was above 100 µM throughout.
Consider `O=C(Cn1c(C(=O)/C=C/c2cccs2)nc2ccccc21)c1ccc(Cl)cc1`, for which the TGI in the assay on BT-549 breast was 63.6 µM; in the assay on HCT-116 colon, 39.5 µM; in the assay with HOP-62 NSCLC it was above 100 µM; with RPMI-8226 leukemia, 29.3 µM; in the assay on SF-268 CNS it was 66.5 µM; in the assay with SF-539 CNS it was above 100 µM. Further, the figures for the TGI in the assay with U251 CNS and in the assay on UACC-257 melanoma were 30.3 µM and 58.1 µM, respectively.
Regarding `COc1cc2cc[n+]3c(C)c4cc(OC)c(OC)cc4c([O-])c3c2cc1OC`, the TGI with CAKI-1 renal, in the assay on EKVX NSCLC, in the assay with HCT-116 colon, in the assay on HOP-62 NSCLC, in the assay with RPMI-8226 leukemia and in the assay with SF-268 CNS was above 100 µM each time. Besides, the TGI in the assay on SF-539 CNS, with U251 CNS and in the assay with UACC-257 melanoma was above 100 µM throughout.
As to `COC(=O)C(CSSC[C@H](N/C(C)=C/C(C)=O)C(=O)OC)N/C(C)=C/C(C)=O` (stereo partly drawn), the TGI was 55.4 µM in the assay with CAKI-1 renal; 41.4 µM in the assay with EKVX NSCLC; above 100 µM with HCT-116 colon; above 100 µM in the assay with HOP-62 NSCLC; 63.5 µM in the assay with RPMI-8226 leukemia; above 100 µM with SF-268 CNS. Also, the TGI in the assay on SF-539 CNS, in the assay with U251 CNS and with UACC-257 melanoma was above 100 µM throughout.
As to `COc1ccc(C2N(NC(=O)c3ccncc3)C(=O)CS2(=O)=O)cc1F` (stereo not drawn), the TGI in the assay with CAKI-1 renal, in the assay on HCT-116 colon, in the assay with HOP-62 NSCLC, in the assay on RPMI-8226 leukemia, in the assay on SF-268 CNS and with U251 CNS was above 100 µM in each case. The TGI in the assay with UACC-257 melanoma is above 100 µM.
For `CN1CCN(CCCBr)CC1`, the TGI in the assay on BT-549 breast, in the assay with EKVX NSCLC, in the assay with HCT-116 colon, with HOP-62 NSCLC, with RPMI-8226 leukemia and with SF-268 CNS was above 100 µM in each case. Besides, the TGI in the assay with SF-539 CNS, with U251 CNS and in the assay on UACC-257 melanoma was above 100 µM in each case.
Take `O=C1C(=O)c2ccccc2C(O)=C1CCCc1ccc(Oc2ccccc2)cc1`: the TGI with CAKI-1 renal was 70.5 µM; in the assay with EKVX NSCLC it was above 100 µM; in the assay on HOP-62 NSCLC it was 23.2 µM; in the assay on RPMI-8226 leukemia, above 100 µM; in the assay with SF-268 CNS it was above 100 µM; in the assay on SF-539 CNS, 28 µM. The values for the TGI in the assay with U251 CNS and in the assay with UACC-257 melanoma were above 100 µM and 23.9 µM, respectively.
Turning to `C/C(Nc1ccc(F)cc1)=C1/CCOC1=O`, the TGI in the assay with BT-549 breast, in the assay on EKVX NSCLC, in the assay with HCT-116 colon, with HOP-62 NSCLC, with RPMI-8226 leukemia and in the assay with SF-268 CNS was above 100 µM throughout. The TGI in the assay with SF-539 CNS, with U251 CNS and in the assay with UACC-257 melanoma was above 100 µM each time.
